# Test results: ChEMBL document CHEMBL3272110, “Synthesis and biological properties of 4-amino- and 4-bromo-4-norpyridoxol. New approaches for the modification of the 4 position of vitamin B6” (1976)
# The source made the active and inactive calls. The rule behind the calls is not given here.
# Tests used:
# TA3 [1] = assay: Growth inhibition of mouse TA3 cells; format: functional
# TA3 [2] = assay: Growth inhibition of mouse TA3 cells at 10^-4 M; format: functional
Structure (SMILES),ID50 (TA3 [1]),growth inhibition (GI) (TA3 [2]),other results
Cc1ncc(CO)c(/C=N/O)c1O,8 ×10⁻⁵ M,–,–
Cc1ncc(CO)c(C(F)(F)F)c1O,2 ×10⁻⁵ M,–,–
Cc1ncc(CBr)c(N)c1O,–,–,inhibition of growth at 100 µM (TA3 [2]; read-out: GI): 30%
Cc1ncc(CO)c(O)c1O,–,inactive,–
Br.Cc1ncc(CO)c(Br)c1O,1 ×10⁻⁵ M,–,–
Cc1ncc(CO)c(N)c1O,–,inactive,–
